From PubChem BioAssay AID330 (DTP/NCI, 2004)
“And” between values parts separate entries of the source, which are not always exact repeats. Equal values may be shown once. Toxic doses and inconclusive results are not listed.

System: P388 leukemia ip, CD2F1 mice, survival T/C
Test: NCI In Vivo Anticancer Drug Screen. Data for tumor model P388 Leukemia (intraperitoneal) in CD2F1 (CDF1) mice
Details: endpoint: median survival time, higher = longer survival
Method in brief: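 Mice carrying the transplanted tumor received test compound or vehicle. Survival was recorded in each group, and the value is the treated-group measurement divided by that of the vehicle-treated control group.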

[1] = dose: 50.0 mg/kg/injection, schedule: Q01DX009 (ip), vehicle: Klucel (hydroxypropylcellulose) (HPC)
[2] = dose: 100.0 mg/kg/injection, schedule: Q01DX009 (ip), vehicle: Klucel (hydroxypropylcellulose) (HPC)
[3] = dose: 50.0 mg/kg/injection, schedule: Q01DX005 (ip), vehicle: Klucel (hydroxypropylcellulose) (HPC)
[4] = dose: 100.0 mg/kg/injection, schedule: Q01DX005 (ip), vehicle: Klucel (hydroxypropylcellulose) (HPC)
[5] = dose: 200.0 mg/kg/injection, schedule: Q01DX005 (ip), vehicle: Klucel (hydroxypropylcellulose) (HPC)
[6] = dose: 50.0 mg/kg/injection, schedule: Q01DX005 (ip), vehicle: saline with Tween-80
[7] = dose: 100.0 mg/kg/injection, schedule: Q01DX005 (ip), vehicle: saline with Tween-80
[8] = dose: 200.0 mg/kg/injection, schedule: Q01DX005 (ip), vehicle: saline with Tween-80

SMILES: CC[n+]1ccc2c(C)c3[nH]c4ccc(O)cc4c3c(C)c2c1
- T/C (dose: 1.56 mg/kg/injection, schedule: Q04DX003 (ip), vehicle: saline): 165 % of control
- T/C (dose: 3.12 mg/kg/injection, schedule: Q04DX003 (ip), vehicle: saline): 192 % of control
- T/C (dose: 6.25 mg/kg/injection, schedule: Q04DX003 (ip), vehicle: saline): 171 % of control and 223 % of control
- T/C (dose: 12.5 mg/kg/injection, schedule: Q04DX003 (ip), vehicle: saline): 103 % of control and 90 % of control
- T/C (dose: 25.0 mg/kg/injection, schedule: Q04DX003 (ip), vehicle: saline): 90 % of control
- T/C (dose: 50.0 mg/kg/injection, schedule: Q04DX003 (ip), vehicle: saline): 90 % of control

SMILES: CS(=O)(=O)c1nc(N)c(S(N)(=O)=O)c(N)n1
- T/C [1]: 108 % of control
- T/C [2]: 111 % of control

SMILES: Nc1ncnc2nc(Cl)[nH]c12
- T/C [3]: 91 % of control
- T/C [4]: 93 % of control
- T/C [5]: 93 % of control

SMILES: C1COCCOCCOCCOCCO1.[Cl][Sn]([Cl])([Cl])[Cl]
- T/C (dose: 60.0 mg/kg/injection, schedule: Q01DX005 (ip), vehicle: Klucel (hydroxypropylcellulose) (HPC)): 100 % of control
- T/C (dose: 120.0 mg/kg/injection, schedule: Q01DX005 (ip), vehicle: Klucel (hydroxypropylcellulose) (HPC)): 99 % of control

SMILES: CC(C)CC(NC(=O)C(Cc1ccccc1)NC(=O)CNC(=O)CNC(=O)C(N)Cc1ccc(O)cc1)C(N)=O (configuration not stated)
- T/C (dose: 8.75 mg/kg/injection, schedule: Q01DX005 (ip), vehicle: saline): 108 % of control
- T/C (dose: 17.5 mg/kg/injection, schedule: Q01DX005 (ip), vehicle: saline): 110 % of control
- T/C (dose: 35.0 mg/kg/injection, schedule: Q01DX005 (ip), vehicle: saline): 104 % of control
- T/C (dose: 70.0 mg/kg/injection, schedule: Q01DX005 (ip), vehicle: saline): 112 % of control
- T/C (dose: 140.0 mg/kg/injection, schedule: Q01DX005 (ip), vehicle: saline): 108 % of control

SMILES: COc1cccc(OC)c1C(c1c(OC)cccc1OC)c1c(OC)cccc1OC
- T/C (dose: 22.0 mg/kg/injection, schedule: Q04DX003 (ip), vehicle: saline with Tween-80): 109 % of control
- T/C (dose: 33.0 mg/kg/injection, schedule: Q04DX003 (ip), vehicle: saline with Tween-80): 113 % of control
- T/C (dose: 75.0 mg/kg/injection, schedule: Q04DX003 (ip), vehicle: saline with Tween-80): 109 % of control

SMILES: COC(=O)C(Cc1cc(OC)c(OC)c(OC)c1I)C(=O)OC
- T/C (dose: 100.0 mg/kg/injection, schedule: Q01DX001 (ip), vehicle: saline with Tween-80): 102 % of control
- T/C (dose: 200.0 mg/kg/injection, schedule: Q01DX001 (ip), vehicle: saline with Tween-80): 100 % of control
- T/C (dose: 400.0 mg/kg/injection, schedule: Q01DX001 (ip), vehicle: saline with Tween-80): 103 % of control

SMILES: CC1=CC(=Nc2ccc(N(C)C)cc2)C=CC1=O
- T/C (dose: 3.13 mg/kg/injection, schedule: Q01DX009 (ip), vehicle: saline with Tween-80): 104 % of control and 115 % of control
- T/C (dose: 6.25 mg/kg/injection, schedule: Q01DX009 (ip), vehicle: saline with Tween-80): 107 % of control and 115 % of control
- T/C (dose: 12.5 mg/kg/injection, schedule: Q01DX009 (ip), vehicle: saline with Tween-80): 111 % of control and 114 % of control

SMILES: C=C1CC2(CCCCC2Cc2ccccc2)OC1=O (configuration not stated)
- T/C (dose: 100.0 mg/kg/injection, schedule: Q04DX002 (ip), vehicle: saline): 100 % of control
- T/C (dose: 200.0 mg/kg/injection, schedule: Q04DX002 (ip), vehicle: saline): 101 % of control
- T/C (dose: 400.0 mg/kg/injection, schedule: Q04DX002 (ip), vehicle: saline): 99 % of control

SMILES: O=S(=O)(O)Nc1ccccc1
- T/C (dose: 12.5 mg/kg/injection, schedule: Q01DX009 (ip), vehicle: water): 100 % of control
- T/C (dose: 25.0 mg/kg/injection, schedule: Q01DX009 (ip), vehicle: water): 104 % of control
- T/C (dose: 50.0 mg/kg/injection, schedule: Q01DX009 (ip), vehicle: water): 99 % of control
- T/C (dose: 100.0 mg/kg/injection, schedule: Q01DX009 (ip), vehicle: water): 100 % of control
- T/C (dose: 200.0 mg/kg/injection, schedule: Q01DX009 (ip), vehicle: water): 101 % of control

SMILES: c1ccc2cc3cc(N=Nc4ccc5cc6ccccc6cc5c4)ccc3cc2c1
- T/C (dose: 100.0 mg/kg/injection, schedule: Q04DX002 (ip), vehicle: saline with Tween-80): 108 % of control
- T/C (dose: 200.0 mg/kg/injection, schedule: Q04DX002 (ip), vehicle: saline with Tween-80): 104 % of control
- T/C (dose: 400.0 mg/kg/injection, schedule: Q04DX002 (ip), vehicle: saline with Tween-80): 106 % of control

SMILES: O=C(O)/C=N/NS(=O)(=O)/C=C/c1ccccc1
- T/C (dose: 25.0 mg/kg/injection, schedule: Q01DX009 (ip), vehicle: distilled water + Tween-80): 166 % of control
- T/C (dose: 50.0 mg/kg/injection, schedule: Q01DX009 (ip), vehicle: distilled water + Tween-80): 172 % of control
- T/C (dose: 100.0 mg/kg/injection, schedule: Q01DX009 (ip), vehicle: distilled water + Tween-80): 112 % of control

SMILES: O=c1[nH]c(=O)c2nc(-c3ccccn3)cnc2[nH]1
- T/C (dose: 50.0 mg/kg/injection, schedule: Q01DX001 (ip), vehicle: saline): 101 % of control
- T/C (dose: 100.0 mg/kg/injection, schedule: Q01DX001 (ip), vehicle: saline): 90 % of control
- T/C (dose: 200.0 mg/kg/injection, schedule: Q01DX001 (ip), vehicle: saline): 92 % of control

SMILES: COC(=O)c1cc(C=C(C)C)[nH]c(=O)c1C#N
- T/C (dose: 30.0 mg/kg/injection, schedule: Q01DX005 (ip), vehicle: saline): 99 % of control
- T/C (dose: 60.0 mg/kg/injection, schedule: Q01DX005 (ip), vehicle: saline): 100 % of control and 107 % of control
- T/C (dose: 120.0 mg/kg/injection, schedule: Q01DX005 (ip), vehicle: saline): 107 % of control

SMILES: N[C@H]1CC[C@@H](C(=O)O)C1
- T/C (dose: 50.0 mg/kg/injection, schedule: Q01DX005 (ip), vehicle: saline): 109 % of control
- T/C (dose: 100.0 mg/kg/injection, schedule: Q01DX005 (ip), vehicle: saline): 101 % of control
- T/C (dose: 200.0 mg/kg/injection, schedule: Q01DX005 (ip), vehicle: saline): 108 % of control

SMILES: c1ccc(C2C(c3ccccn3)C(c3ccccn3)C2c2ccccn2)nc1 (configuration not stated)
- T/C (dose: 100.0 mg/kg/injection, schedule: Q01DX001 (ip), vehicle: Klucel (hydroxypropylcellulose) (HPC)): 95 % of control
- T/C (dose: 200.0 mg/kg/injection, schedule: Q01DX001 (ip), vehicle: Klucel (hydroxypropylcellulose) (HPC)): 94 % of control
- T/C (dose: 400.0 mg/kg/injection, schedule: Q01DX001 (ip), vehicle: Klucel (hydroxypropylcellulose) (HPC)): 95 % of control

SMILES: CNC(=O)c1ccc(OC)cc1C1(O)c2ccccc2CCc2ccccc21
- T/C [3]: 92 % of control
- T/C [4]: 92 % of control
- T/C [5]: 89 % of control

SMILES: CCOC(=O)/C(C#N)=C(\CCC(C(=O)O)N1C(=O)c2ccccc2C1=O)OC (configuration not stated)
- T/C (dose: 100.0 mg/kg/injection, schedule: Q04DX002 (ip), vehicle: Klucel (hydroxypropylcellulose) (HPC)): 102 % of control
- T/C (dose: 200.0 mg/kg/injection, schedule: Q04DX002 (ip), vehicle: Klucel (hydroxypropylcellulose) (HPC)): 102 % of control
- T/C (dose: 400.0 mg/kg/injection, schedule: Q04DX002 (ip), vehicle: Klucel (hydroxypropylcellulose) (HPC)): 110 % of control

SMILES: NC(Cc1ccc(O)cc1)C(=O)N/N=C/c1ccc2c(c1)OCO2 (configuration not stated)
- T/C [6]: 92 % of control
- T/C [7]: 99 % of control
- T/C [8]: 103 % of control

SMILES: COc1cc(CNc2cccc(F)c2)cc(OC)c1OC
- T/C [3]: 100 % of control
- T/C [4]: 110 % of control
- T/C [5]: 89 % of control

SMILES: CCOC(=O)NC(Cc1cc(OC)c(OC)cc1Br)c1ccc(OC)c(OC)c1 (configuration not stated)
- T/C [6]: 89 % of control
- T/C [7]: 89 % of control
- T/C [8]: 100 % of control

SMILES: Nc1ncnc2c1ncn2CC1OC(O)C(O)C1NC(=O)C(N)Cc1ccccc1 (configuration not stated)
- T/C (dose: 8.0 mg/kg/injection, schedule: Q01DX005 (ip), vehicle: saline): 94 % of control
- T/C (dose: 16.0 mg/kg/injection, schedule: Q01DX005 (ip), vehicle: saline): 106 % of control
- T/C (dose: 32.0 mg/kg/injection, schedule: Q01DX005 (ip), vehicle: saline): 94 % of control
- T/C (dose: 64.0 mg/kg/injection, schedule: Q01DX005 (ip), vehicle: saline): 101 % of control
- T/C (dose: 128.0 mg/kg/injection, schedule: Q01DX005 (ip), vehicle: saline): 94 % of control
- T/C (dose: 256.0 mg/kg/injection, schedule: Q01DX005 (ip), vehicle: saline): 97 % of control

SMILES: O=C(CCl)NC1(C(=O)O)CCCC1
- T/C [1]: 94 % of control
- T/C [2]: 90 % of control
- T/C (dose: 200.0 mg/kg/injection, schedule: Q01DX009 (ip), vehicle: Klucel (hydroxypropylcellulose) (HPC)): 97 % of control
